Assay results as given in US5169836A, “Inhibitors of platelet binding” (Trustees of the University of Penna., priority 1988, dated 1992).
Where no end group is shown, it is not given here.

Experiments:
glycoprotein IIb = molecular target: T1, glycoprotein IIb (Homo sapiens, UniProt P08514); assay: Binding of FITC-B1B5 to activated platelets, flow cytometry; details: activated platelets (ADP and epinephrine, 10 μM each)
T1 construct: endogenous in cells
T1 sequence (P08514 32-887 limits assumed): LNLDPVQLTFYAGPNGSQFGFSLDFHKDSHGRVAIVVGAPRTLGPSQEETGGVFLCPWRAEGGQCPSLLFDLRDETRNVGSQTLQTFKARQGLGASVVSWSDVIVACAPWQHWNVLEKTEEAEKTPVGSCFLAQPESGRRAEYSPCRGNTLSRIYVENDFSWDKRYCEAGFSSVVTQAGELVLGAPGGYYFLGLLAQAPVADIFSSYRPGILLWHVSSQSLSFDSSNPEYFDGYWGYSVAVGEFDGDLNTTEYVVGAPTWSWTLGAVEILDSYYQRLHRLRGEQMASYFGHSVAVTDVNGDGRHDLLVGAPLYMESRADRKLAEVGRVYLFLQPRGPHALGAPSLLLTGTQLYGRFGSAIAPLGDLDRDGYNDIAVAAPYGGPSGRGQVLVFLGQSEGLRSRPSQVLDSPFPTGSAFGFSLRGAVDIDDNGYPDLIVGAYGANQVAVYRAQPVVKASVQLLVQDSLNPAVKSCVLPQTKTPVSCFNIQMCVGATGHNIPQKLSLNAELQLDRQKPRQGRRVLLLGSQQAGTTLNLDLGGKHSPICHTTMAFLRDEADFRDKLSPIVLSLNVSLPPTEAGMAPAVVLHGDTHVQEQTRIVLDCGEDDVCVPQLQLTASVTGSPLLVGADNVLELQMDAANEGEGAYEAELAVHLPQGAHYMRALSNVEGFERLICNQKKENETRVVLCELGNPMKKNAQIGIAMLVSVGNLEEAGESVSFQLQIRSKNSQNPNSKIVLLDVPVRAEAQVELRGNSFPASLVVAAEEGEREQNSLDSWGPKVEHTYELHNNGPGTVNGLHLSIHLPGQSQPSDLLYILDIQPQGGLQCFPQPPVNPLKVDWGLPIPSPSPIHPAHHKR
Protocol: (§1) Gel-filtered platelets were incubated in the presence of Arg-Tyr-Asp-21mer and various FITC-labeled anti-platelet monoclonal antibodies. Monoclonal antibody binding was determined by flow cytometry. In the case of antibody AP1 (specific for platelet glycoprotein Ib) (unfilled circles), the platelets were not activated. In the case of antibodies PAC1 (specific for activated glycoproteins IIb-IIIa) (filled circles), BIB5 (specific for glycoprotein IIb) (filled squares) and S12 (specific for GMP-140) (unfilled triangles), the platelets were activated with ADP and epinephrine (10 μM each). The data shown are from a single experiment representative of two runs performed as described.
(§2) The binding of PAC1 monoclonal antibody and fibrinogen to gel-filtered human blood platelets was examined by fluorescence-activated flow cytometry using the procedures of Shattil et al., Blood, 70, 307-315 (1987). […] Then, 500 μl of the isotonic buffer was added and antibody binding was quantitated using a flow cytometer, as described in Shattil et al., Blood, 70, 307-315 (1987). Fibrinogen binding to platelets was measured using the same incubation system, except that 50 μg/ml of purified human fibrinogen as described in Bennett et al., J. Clin. Invest., 64, 1393-1400 (1979) was added and the monoclonal antibody, FITC-9F9, was used instead of FITC-PAC1. […]

[1] = molecular target: T2, blood platelet membrane fibrinogen receptor, glycoprotein IIb-IIIa (Homo sapiens, UniProt P05106+P08514); assay: Fibrinogen binding to activated gel-filtered platelets, measured with FITC-9F9 by flow cytometry; details: 50 μg/ml fibrinogen
T2 construct: Venous blood from normal donors was drawn; endogenous in cells
T2 sequence (P08514 32-887 limits assumed): T1 sequence (P08514 32-887 limits assumed)
T2 sequence (P05106 27-788): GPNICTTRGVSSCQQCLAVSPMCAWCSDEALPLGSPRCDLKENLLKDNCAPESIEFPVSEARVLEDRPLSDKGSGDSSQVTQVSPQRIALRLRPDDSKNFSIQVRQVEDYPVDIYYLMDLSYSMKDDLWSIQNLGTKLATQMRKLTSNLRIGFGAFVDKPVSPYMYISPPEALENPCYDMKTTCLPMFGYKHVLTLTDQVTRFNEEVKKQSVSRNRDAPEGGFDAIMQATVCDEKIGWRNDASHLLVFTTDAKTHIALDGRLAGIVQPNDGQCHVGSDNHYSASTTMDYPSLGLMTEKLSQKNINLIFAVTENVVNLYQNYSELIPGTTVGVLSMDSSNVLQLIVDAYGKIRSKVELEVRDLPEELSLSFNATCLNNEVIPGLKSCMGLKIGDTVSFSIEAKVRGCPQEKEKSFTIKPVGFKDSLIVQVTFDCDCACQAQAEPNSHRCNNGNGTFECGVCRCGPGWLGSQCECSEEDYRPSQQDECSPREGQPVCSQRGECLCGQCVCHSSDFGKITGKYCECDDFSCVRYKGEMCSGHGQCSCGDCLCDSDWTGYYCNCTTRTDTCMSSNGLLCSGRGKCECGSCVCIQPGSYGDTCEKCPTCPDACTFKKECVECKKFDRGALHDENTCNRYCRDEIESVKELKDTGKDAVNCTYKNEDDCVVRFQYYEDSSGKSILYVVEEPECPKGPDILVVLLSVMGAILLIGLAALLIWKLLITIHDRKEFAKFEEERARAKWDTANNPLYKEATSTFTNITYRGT
From the text: The binding of PAC1 monoclonal antibody and fibrinogen to gel-filtered human blood platelets was examined by fluorescence-activated flow cytometry using the procedures of Shattil et al., Blood, 70, 307-315 (1987). Venous blood from normal donors was drawn into 1/7 vol of NIH formula A acid-citrate-dextrose solution, platelet-rich plasma was obtained, and the platelets were gel-filtered into an isotonic HEPES-containing buffer at pH 7.4, as described in Shattil et al., Blood, 68, 1224-1231 (1986). […] Then, 500 μl of the isotonic buffer was added and antibody binding was quantitated using a flow cytometer, as described in Shattil et al., Blood, 70, 307-315 (1987). Fibrinogen binding to platelets was measured using the same incubation system, except that 50 μg/ml of purified human fibrinogen as described in Bennett et al., J. Clin. Invest., 64, 1393-1400 (1979) was added and the monoclonal antibody, FITC-9F9, was used instead of FITC-PAC1. […] Previous studies have established that the amount of FITC-labeled antibody bound to platelets determined by flow cytometry is related in a linear fashion to the amount of antibody bound determined in a conventional radioligand binding assay. […]
The ability of Arg-Tyr-Asp-21mer to inhibit fibrinogen binding to activated platelets was also tested. Fibrinogen binding was assessed by flow cytometry using a FITC-labeled anti-fibrinogen monoclonal antibody, 9F9. […]

[2] = molecular target: T3, glycoprotein IIb-IIIa on activated platelets (Homo sapiens, UniProt P05106+P08514); assay: Binding of FITC-PAC1 to activated gel-filtered platelets, flow cytometry; details: for effect on FITC-PAC1 binding: platelets activated with ADP and epinephrine (10 μM each), peptide 0-100 μM
T3 construct: Venous blood from normal donors was drawn; endogenous in cells
T3 sequence (P08514 32-887 limits assumed): T1 sequence (P08514 32-887 limits assumed)
T3 sequence (P05106 27-788): T2 sequence (P05106 27-788)
From the text: The binding of PAC1 monoclonal antibody and fibrinogen to gel-filtered human blood platelets was examined by fluorescence-activated flow cytometry using the procedures of Shattil et al., Blood, 70, 307-315 (1987). Venous blood from normal donors was drawn into 1/7 vol of NIH formula A acid-citrate-dextrose solution, platelet-rich plasma was obtained, and the platelets were gel-filtered into an isotonic HEPES-containing buffer at pH 7.4, as described in Shattil et al., Blood, 68, 1224-1231 (1986). To examine the effect of synthetic peptides on PAC1 binding to activated platelets, 5×10^7 platelets were incubated for 15 min at room temperature in a final vol of 50 μl in the presence of varying concentrations of (0-100 μM) of peptide, 40 μg/ml fluorescein-labeled PAC1 (FITC-PAC1 ), 10 μM ADP and 10 μM epinephrine. Then, 500 μl of the isotonic buffer was added and antibody binding was quantitated using a flow cytometer, as described in Shattil et al., Blood, 70, 307-315 (1987). Fibrinogen binding to platelets was measured using the same incubation system, except that 50 μg/ml of purified human fibrinogen as described in Bennett et al., J. Clin. Invest., 64, 1393-1400 (1979) was added and the monoclonal antibody, FITC-9F9, was used instead of FITC-PAC1. […] Abrams et al., Blood, 70, 335a (1987). […] Shattil et al., Blood 70, 307-315 (1987). The amount of platelet-bound FITC-PAC1 or FITC-9F9 was determined by analyzing 10,000 platelets for the extent of fluorescence at 488 nm, and binding expressed as the mean fluorescence intensity in arbitrary fluorescence units.

GMP-140 = molecular target: T4, GMP-140 (Homo sapiens, UniProt P16109); assay: Binding of FITC-S12 to activated platelets, flow cytometry; details: activated platelets (ADP and epinephrine, 10 μM each)
T4 construct: endogenous in cells
T4 sequence (P16109 42-830): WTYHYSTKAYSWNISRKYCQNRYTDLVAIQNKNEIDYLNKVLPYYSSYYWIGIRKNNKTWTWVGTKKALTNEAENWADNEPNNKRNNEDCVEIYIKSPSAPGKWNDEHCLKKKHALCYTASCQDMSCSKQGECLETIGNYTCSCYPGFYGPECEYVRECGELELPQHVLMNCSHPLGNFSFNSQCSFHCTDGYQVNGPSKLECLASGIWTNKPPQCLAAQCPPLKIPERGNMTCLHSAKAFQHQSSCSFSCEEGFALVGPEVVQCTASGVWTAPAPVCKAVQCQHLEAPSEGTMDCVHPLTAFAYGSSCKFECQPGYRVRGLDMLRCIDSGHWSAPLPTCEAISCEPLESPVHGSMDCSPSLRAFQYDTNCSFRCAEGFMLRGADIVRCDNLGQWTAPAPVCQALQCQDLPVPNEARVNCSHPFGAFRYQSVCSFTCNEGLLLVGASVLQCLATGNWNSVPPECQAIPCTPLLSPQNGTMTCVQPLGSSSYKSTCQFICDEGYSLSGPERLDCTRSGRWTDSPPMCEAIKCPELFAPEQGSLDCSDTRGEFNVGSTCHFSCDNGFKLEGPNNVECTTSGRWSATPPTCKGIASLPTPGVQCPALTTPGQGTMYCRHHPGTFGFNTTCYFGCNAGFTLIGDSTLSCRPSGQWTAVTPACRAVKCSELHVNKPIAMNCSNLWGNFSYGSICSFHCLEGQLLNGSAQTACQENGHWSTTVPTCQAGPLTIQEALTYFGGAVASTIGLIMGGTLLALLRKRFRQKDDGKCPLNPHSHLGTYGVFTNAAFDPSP
Protocol: as §1, §2

platelet glycoprotein Ib = molecular target: T5, platelet glycoprotein Ib (Homo sapiens, UniProt P07359); assay: Binding of FITC-AP1 to resting platelets, flow cytometry
T5 construct: platelet glycoprotein Ib on resting platelets; endogenous in cells
Protocol: as §1, §2

T5 sequence (P07359 17-652): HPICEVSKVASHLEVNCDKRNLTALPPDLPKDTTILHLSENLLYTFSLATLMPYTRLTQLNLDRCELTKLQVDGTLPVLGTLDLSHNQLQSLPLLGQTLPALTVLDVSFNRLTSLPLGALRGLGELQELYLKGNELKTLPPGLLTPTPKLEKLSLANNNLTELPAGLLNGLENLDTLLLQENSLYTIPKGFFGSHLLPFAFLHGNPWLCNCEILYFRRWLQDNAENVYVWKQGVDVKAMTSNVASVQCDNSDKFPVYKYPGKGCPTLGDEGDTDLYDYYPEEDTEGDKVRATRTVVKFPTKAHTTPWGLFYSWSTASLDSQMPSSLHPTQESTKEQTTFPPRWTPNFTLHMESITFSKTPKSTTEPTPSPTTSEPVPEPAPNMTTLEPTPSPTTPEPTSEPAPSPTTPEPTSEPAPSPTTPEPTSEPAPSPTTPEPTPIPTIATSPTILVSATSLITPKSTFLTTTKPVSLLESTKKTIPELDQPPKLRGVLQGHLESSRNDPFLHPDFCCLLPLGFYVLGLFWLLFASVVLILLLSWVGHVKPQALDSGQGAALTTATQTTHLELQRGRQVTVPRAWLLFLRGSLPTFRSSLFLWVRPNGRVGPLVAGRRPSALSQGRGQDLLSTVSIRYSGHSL
T5 sequence (P13224 26-206 partner): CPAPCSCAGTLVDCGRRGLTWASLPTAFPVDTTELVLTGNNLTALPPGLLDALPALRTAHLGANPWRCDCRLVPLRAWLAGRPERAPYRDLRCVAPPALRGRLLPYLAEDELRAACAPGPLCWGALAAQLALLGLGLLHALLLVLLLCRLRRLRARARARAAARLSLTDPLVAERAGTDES
T5 sequence (P14770 17-177 partner): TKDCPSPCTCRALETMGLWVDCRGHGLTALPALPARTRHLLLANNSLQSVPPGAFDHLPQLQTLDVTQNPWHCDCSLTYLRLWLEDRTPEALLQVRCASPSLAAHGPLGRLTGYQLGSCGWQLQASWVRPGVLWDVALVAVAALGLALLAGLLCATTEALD

| Substance | effect on the binding of FITC-B1B5 to glycoprotein IIb (glycoprotein IIb) | Ki ([1]; Dixon plot analysis, three experiments, ADP plus epinephrine, read-out: apparent Ki for inhibition of fibrinogen binding) | Ki ([2]; Dixon plot analysis, five separate experiments, ±SE, read-out: apparent Ki for inhibition of PAC1 binding) | IC50 ([2]; platelets activated with 10 μM ADP and 10 μM epinephrine, 40 μg/ml FITC-PAC1, 15 min, room temperature, read-out: IC50 for inhibition of the binding of FITC-PAC1 to platelets) | effect on FITC-PAC1 binding [2] | effect on the binding of FITC-S12 to GMP-140 (GMP-140) | effect on the binding of FITC-AP1 to platelet glycoprotein Ib (platelet glycoprotein Ib) | effect on 9F9 binding (fibrinogen binding) ([1]; platelets activated with ADP plus epinephrine) |
| --- | --- | --- | --- | --- | --- | --- | --- | --- |
| ARRSPSYYRYDGAGPYYAMDY [Arg-Tyr-Asp-21mer] | no effect | 5.5 ± 3.5 µM | 10.2 ± 4.3 µM | 20 to 30 µM | marked effect | no effect | no effect |  |
| NH2 -Tyr-Val-Asp-Gly-Asp-Gln-Cys-(Acm)-Glu-Ser-Asn-Pro-Cys-Leu-Asn-Gly-Gly-Met(O)-Cys-(Acm)-Lys-Asp-Asp-Ile-Asn-Ser-Tyr-Gly-Cys-Phe-COOH [unrelated-28mer, reference compound] |  |  |  |  | no effect |  |  | no effect |
